By MBC is commonly meant the smallest concentration meeting the test's criterion for killing. What is called MIC is the smallest concentration in the dilution series that meets the test's criterion for growth inhibition.

In brackets after ≈: the same amount, converted by molar mass. Like-named read-outs stand apart in the source and are kept apart here. Where a SMILES comes first, the peptide text is derived from it. Where no end group is shown, it is not given here.

We go through six molecules from PMC8788131, “AMPlify: attentive deep learning model for discovery of novel antimicrobial peptides effective against WHO priority pathogens” (BMC Genomics, 2022).

In assay [1] the test system is MDR E. coli (CPO-NDM) clinical isolate. It counts as cell-based, Escherichia coli. From the text: (§1) From the novel candidate AMP sequences predicted by AMPlify, 11 were selected for validation in vitro. Minimum inhibitory concentrations (MIC) and minimum bactericidal concentrations (MBC) were obtained using the AST procedures outlined by the Clinical and Laboratory Standards Institute (CLSI), with the recommended adaptations for testing cationic AMPs described by Hancock.
(§2) A panel of two Gram-positive and four Gram-negative bacterial isolates was generated to test predicted AMPs. Staphylococcus aureus ATCC 6538P, Streptococcus pyogenes (hospital isolate, unknown strain), Pseudomonas aeruginosa ATCC 10148, and Escherichia coli ATCC 9723H were obtained and tested at the University of Victoria. Additionally, a multi-drug resistant (MDR), carbapenemase-producing New-Delhi metallobetalactamase (CPO-NDM) clinical isolate of Escherichia coli was obtained from the BC Centre for Disease Control. E. coli ATCC 29522 was purchased from Cedarlane Laboratories (Burlington, Ontario, Canada) for comparison of AMP activity between a wild type, drug-susceptible control and the MDR strain. The latter two strains were tested at the BC Centre for Disease Control using identical AST procedures.
(§3) Bacteria were streaked onto nonselective nutrient agar from frozen stocks and incubated for 18–24 h at 37 °C. To prepare a standardized bacterial inoculum, isolated colonies were suspended in Mueller-Hinton Broth (MHB) and adjusted to an optical density of 0.08–0.1 at 600 nm, equivalent to a 0.5 McFarland standard and representing approximately 1–2 × 10^8 CFU/mL (CFU: colony forming units). The inoculum was diluted 1/250 in MHB to the target concentration of (5 ± 3) × 10^5 CFU/mL. Total viability counts from the final inoculum were examined to confirm the target bacterial density was obtained.
(§4) Selected candidate AMPs were purchased from Genscript (Piscataway, NJ), where they were synthesized using the vendor’s Flexpeptide platform. Lyophilized peptides were suspended in sterile ultrapure water or filter-sterilized 0.2% acetic acid as recommended by solubility testing reports provided with the GenScript synthesis. AMPs were diluted from 2560 to 5 μg/mL by a two-fold serial dilution in a 96-well polypropylene microtitre plate before 100 μl of the standardized bacterial inoculum of (5 ± 3) × 10^5 CFU/mL was added to each well. This generated a final test range of 256 to 0.5 μg/mL. MIC values were reported as the peptide concentration that produced no visible bacterial growth after a 16–24 h incubation at 37 °C.
(§5) For each AMP dilution series, the contents of the MIC well and the two adjacent wells containing two- and four-fold MIC were plated onto nonselective nutrient agar and incubated for 24 h at 37 °C. The concentration which killed 99.9% of the initial inoculum was determined to be the MBC.

Assay [2] deals with all E. coli strains tested. It counts as cell-based, Escherichia coli.
From the text: as §1, §2, §3, §4, §5

Assay [3] deals with E. coli ATCC 25922. It counts as cell-based, Escherichia coli.
From the text: as §1
as §2, with “E. coli ATCC 29522 was purchased from Cedarlane Laboratories (Burlington, Ontario, Canada) for comparison of AMP activity between a wild type, drug-susceptible control and the MDR strain.” left out
as §3, §4, §5

The test system of assay [4] is Staphylococcus aureus ATCC 6538P. It counts as cell-based.
From the text: as §1, §2, §3, §4, §5

The test system of assay [5] is Escherichia coli ATCC 9723H. It counts as cell-based.
From the text: as §1, §2, §3, §4, §5

Assay [6] has as its system Streptococcus pyogenes (unknown strain; hospital isolate). It counts as cell-based.
From the text: as §1, §2, §3, §4, §5

Assay [7] has as its system at least one of the ten bacterial species tested: Bacillus subtilis, Micrococcus luteus, Staphyloccus aureus, Staphylococcus epidermis, Escherichia coli …. More on the design: method as in Won and co-workers [2]; key: ✓: Whether the peptide shows antimicrobial activity against at least one of the ten bacterial species tested in the work. Particulars: activity against at least one of ten bacterial species; blank cell = not active; ref Won and co-workers [2]; cited from earlier work.

Setting [8] is: range over all E. coli strains tested (ATCC 9723H, ATCC 25922, MDR CPO-NDM).

Consider `CC[C@H](C)[C@H](NC(=O)[C@@H](NC(=O)[C@@H]1CCCN1C(=O)[C@H](Cc1ccccc1)NC(=O)[C@@H](N)Cc1ccccc1)[C@@H](C)CC)C(=O)N[C@@H](C)C(=O)N[C@@H](CCCNC(=N)N)C(=O)N[C@@H](CC(C)C)C(=O)N[C@@H](C)C(=O)N[C@@H](C)C(=O)N[C@@H](CCCCN)C(=O)N[C@H](C(=O)N[C@H](C(=O)N1CCC[C@H]1C(=O)N[C@@H](CO)C(=O)N[C@@H](CC(C)C)C(=O)N[C@H](C(=O)N[C@@H](CS)C(=O)N[C@@H](C)C(=O)N[C@H](C(=O)N[C@H](C(=O)N[C@@H](CCCCN)C(=O)N[C@@H](CCCCN)C(=O)N[C@@H](CS)C(=O)O)[C@@H](C)O)C(C)C)C(C)C)[C@@H](C)CC)C(C)C` [RaCa-2] (H-FFPIIARLAAKVIPSLVCAVTKKC-OH; N-terminus and C-terminus assumed), for which the minimal bactericidal concentration (MBC) in assay [1] was in the range of 4 to 16 µg/mL; in assay [1] (24 h) it was 2 to 6 µM; in assay [3] (ATCC 25922) it was 4 to 16 µg/mL; in assay [3] (ATCC 25922, 24 h) it was 2 to 6 µM; in assay [4] (ATCC 6538) it was 2 to 4 µg/mL; in assay [4] (ATCC 6538, 24 h) it was 1 to 2 µM. For the same molecule, the minimal bactericidal concentration (MBC) was in the range of 8 to 16 µg/mL in assay [5] (ATCC 9723); 3 to 6 µM in assay [5] (ATCC 9723, 24 h); 64 to 128 µg/mL in assay [6]; 25 to 49 µM in assay [6] (24 h). The MIC in assay [1] lay in the range of 4 to 16 µg/mL; in assay [2] (all strains tested), 2 to 6 µM.

For the molecule `CC[C@H](C)[C@H](NC(=O)[C@H](CCCCN)NC(=O)[C@H](CCC(=O)O)NC(=O)[C@H](CCCCN)NC(=O)[C@H](CO)NC(=O)[C@H](CCCCN)NC(=O)[C@H](CCCNC(=N)N)NC(=O)[C@H](Cc1ccccc1)NC(=O)[C@H](Cc1ccccc1)NC(=O)[C@H](CC(=O)O)NC(=O)CNC(=O)[C@H](CC(C)C)NC(=O)[C@@H](N)CC(C)C)C(=O)NCC(=O)N[C@@H](CCCCN)C(=O)N[C@@H](CCC(=O)O)C(=O)N[C@@H](Cc1ccccc1)C(=O)N[C@@H](CCCCN)C(=O)N[C@@H](CCCNC(=N)N)C(=O)N[C@H](C(=O)N[C@H](C(=O)N[C@@H](CCC(N)=O)C(=O)N[C@@H](CCCNC(=N)N)C(=O)N[C@H](C(=O)N[C@@H](CCCCN)C(=O)N[C@@H](CC(=O)O)C(=O)N[C@@H](Cc1ccccc1)C(=O)N[C@@H](CC(C)C)C(=O)N[C@@H](CCCNC(=N)N)C(=O)N[C@@H](CC(N)=O)C(=O)N[C@@H](CC(C)C)C(=O)N[C@H](C(=O)N1CCC[C@H]1C(=O)N[C@@H](CCCNC(=N)N)C(=O)N[C@H](C(=O)N[C@@H](CCC(=O)O)C(=O)N[C@@H](CO)C(=O)O)[C@@H](C)O)C(C)C)[C@@H](C)CC)C(C)C)[C@@H](C)CC` [LL37, reference compound], the MBC in assay [2] (setting [8]) is 2 to 7 µM; in assay [3] (E. coli ATCC 25922, as Table 3, in µg/mL, range over three independent experiments, NI = no inhibition observed) it was 8 to 16 µg/mL; in assay [3] (E. coli ATCC 25922, plated on agar 24 h at 37 °C, kills 99.9% of inoculum, range over three independent experiments, NI = no inhibition observed), 2 to 4 µM. The molecule also returned a minimal inhibitory concentration (MIC) in assay [2] (setting [8]) of 2 to 4 µM.

On to Gaegurin 5 [GGN5], for which the “Active?” value in assay [7] is “✓”.

For the molecule `CC[C@H](C)[C@H](NC(=O)[C@H](CCCCN)NC(=O)[C@@H](NC(=O)[C@H](C)NC(=O)[C@H](Cc1ccccc1)NC(=O)[C@H](CC(=O)O)NC(=O)[C@H](CCCCN)NC(=O)CNC(=O)[C@@H](NC(=O)[C@@H](NC(=O)[C@H](CCCCN)NC(=O)[C@@H](NC(=O)[C@@H](NC(=O)[C@H](CC(=O)O)NC(=O)[C@H](CC(C)C)NC(=O)[C@H](CC(C)C)NC(=O)CN)[C@@H](C)CC)[C@@H](C)CC)[C@@H](C)O)[C@@H](C)O)C(C)C)C(=O)N[C@@H](CC(C)C)C(=O)N[C@@H](CC(=O)O)C(=O)N[C@@H](CC(N)=O)C(=O)N[C@@H](CC(C)C)C(=O)N[C@@H](CCCCN)C(=O)N[C@@H](CS)C(=O)N[C@@H](CCCCN)C(=O)N[C@@H](CC(C)C)C(=O)N[C@@H](C)C(=O)NCC(=O)NCC(=O)N[C@@H](CS)C(=O)N1CCC[C@H]1C(=O)N1CCC[C@H]1C(=O)O` [RaCa-1] (H-GLLDIIKTTGKDFAVKILDNLKCKLAGGCPP-OH; N-terminus and C-terminus assumed), the minimal bactericidal concentration (MBC) is 64 to 128 µg/mL in assay [1]; 20 to 39 µM in assay [1] (24 h); 10 to 79 µM in assay [2] (all strains tested); 32 to 128 µg/mL in assay [3] (ATCC 25922); 10 to 39 µM in assay [3] (ATCC 25922, 24 h); 128 to 256 µg/mL in assay [5] (ATCC 9723). Also, the minimum bactericidal concentration (MBC) is 39 to 79 µM in assay [5] (ATCC 9723, 24 h); at least 256 µg/mL in assay [6]; at least 79 µM in assay [6] (24 h). Further, the minimum inhibitory concentration (MIC) is 10 to 39 µM in assay [2] (all strains tested) and 256 µg/mL (≈ 78.9 µM) in assay [6].

For FFPRVLPLANKFLPTIYCALPKSVGN [RaCa-7], the MBC is 16 to 128 µg/mL in assay [1]; 6 to 44 µM in assay [1] (24 h); 6 to 88 µM in assay [2] (all strains tested); 16 to 128 µg/mL in assay [3] (ATCC 25922); 6 to 44 µM in assay [3] (ATCC 25922, 24 h); 32 to 256 µg/mL in assay [5] (ATCC 9723). In assay [5] (ATCC 9723, 24 h), this molecule registered a minimum bactericidal concentration (MBC) of 11 to 88 µM. The minimum inhibitory concentration (MIC) in assay [2] (all strains tested) was 6 to 44 µM; in assay [4] (ATCC 6538), at least 88 µM.

For `CC[C@H](C)[C@H](NC(=O)[C@H](CO)NC(=O)[C@H](CCCCN)NC(=O)CNC(=O)[C@@H](NC(=O)[C@@H](NC(=O)[C@H](CCCCN)NC(=O)[C@@H](NC(=O)[C@@H](NC(=O)[C@H](CCC(=O)O)NC(=O)[C@H](Cc1c[nH]c2ccccc12)NC(=O)[C@H](CC(C)C)NC(=O)CN)[C@@H](C)O)[C@@H](C)CC)[C@@H](C)O)[C@@H](C)O)C(=O)N[C@@H](C)C(=O)N[C@@H](CC(C)C)C(=O)N[C@@H](CC(N)=O)C(=O)N[C@@H](CC(C)C)C(=O)N[C@@H](CC(C)C)C(=O)N[C@@H](CC(=O)O)C(=O)N[C@@H](CCCCN)C(=O)N[C@H](C(=O)N[C@@H](CCCCN)C(=O)N[C@@H](CS)C(=O)N[C@@H](CCCCN)C(=O)N[C@H](C(=O)N[C@@H](C)C(=O)NCC(=O)NCC(=O)N[C@@H](CS)C(=O)N1CCC[C@H]1C(=O)N1CCC[C@H]1C(=O)O)[C@@H](C)CC)[C@@H](C)CC` [RaCa-3] (H-GLWETIKTTGKSIALNLLDKIKCKIAGGCPP-OH; N-terminus and C-terminus assumed), the minimal bactericidal concentration (MBC) in assay [1] fell in the range of 16 to 64 µg/mL; in assay [1] (24 h) it was 5 to 20 µM; in assay [2] (all strains tested) it was 2 to 20 µM; in assay [3] (ATCC 25922), 8 to 16 µg/mL; in assay [3] (ATCC 25922, 24 h), 2 to 5 µM; in assay [5] (ATCC 9723) it was 16 to 32 µg/mL. This molecule also returned an MBC in assay [5] (ATCC 9723, 24 h) of 5 to 10 µM. The values for the minimal inhibitory concentration (MIC) in assay [1] and in assay [2] (all strains tested) were 16 to 32 µg/mL and 2 to 10 µM, respectively.
